Among the data in PubChem BioAssay (NCI) are TGI and GI50 values, retold here.

Test systems include SW-620 colon; NCI-H226 lung; SR leukemia; NCI/ADR-RES ovarian; U251 CNS; 786-0 renal; HL-60(TB) leukemia; DU-145 prostate; HS 578T breast; OVCAR-5 ovarian.
Holding throughout (experiment): NCI tumour cell line growth inhibition, 48 h

SMILES strings stand for the structures. “And” between values parts separate entries of the source, which are not always exact repeats. Identical values can stand only once.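 Method: 48-hour compound exposure of cells in 96-well plates, five concentrations, linear interpolation of endpoints. At the GI50, growth is halved. Definition used: TGI = concentration required for complete inhibition of growth.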 A value given as a limit tells only on which side of the number the result lay.

With `O=C1c2cccc(NCCCNCCO)c2C(=O)c2cccc(NCCCNCCO)c21`, the TGI with SW-620 colon was 3.41 µM and 7.57 µM; with NCI-H226 lung it was 5.11 µM and 2.99 µM; in the assay on SR leukemia, 6.25 µM and 7.33 µM; with NCI/ADR-RES ovarian, 28.6 µM; in the assay on U251 CNS, 2.13 µM and 4.46 µM; in the assay on 786-0 renal, 10.1 µM and 5.84 µM. Further, the TGI is 3.86 µM and 6.02 µM with HL-60(TB) leukemia; 7.44 µM in the assay with DU-145 prostate; 2.65 µM with HS 578T breast; 6.28 µM and 6.41 µM in the assay on OVCAR-5 ovarian. Moreover, the GI50 with NCI-H226 lung was 1.93 µM and 0.729 µM; in the assay on SR leukemia it was 2.56 µM and 0.532 µM; in the assay with U251 CNS, 0.536 µM and 1.4 µM.

As for `COc1ccc(-n2cc(-c3cc(OC)c(OC)c(OC)c3)c(C(=O)C(F)(F)F)c2C)cc1`, the GI50 is greater than 100 µM in the assay with SW-620 colon; greater than 100 µM with NCI-H226 lung; 4.54 µM in the assay with SR leukemia; 25.8 µM with NCI/ADR-RES ovarian; 63.4 µM with U251 CNS; greater than 100 µM in the assay with 786-0 renal. For the same compound, the GI50 with HL-60(TB) leukemia is 37.3 µM; in the assay with DU-145 prostate it was greater than 100 µM; in the assay with HS 578T breast, 53.1 µM; with OVCAR-5 ovarian, greater than 100 µM. Moreover, the TGI in the assay with SW-620 colon, in the assay with NCI-H226 lung, in the assay on SR leukemia, in the assay on NCI/ADR-RES ovarian, in the assay with U251 CNS and with 786-0 renal was greater than 100 µM each time. Also, the TGI in the assay with HL-60(TB) leukemia, in the assay with DU-145 prostate, with HS 578T breast and with OVCAR-5 ovarian was greater than 100 µM in each case.

In the case of `CS(=O)(=O)Nc1ccc2c(c1)oc(=O)c1ccccc12`, the TGI in the assay with SW-620 colon, in the assay with NCI-H226 lung, in the assay with SR leukemia, in the assay on NCI/ADR-RES ovarian, with U251 CNS and in the assay with 786-0 renal was greater than 100 µM throughout. The TGI in the assay with HL-60(TB) leukemia, in the assay with DU-145 prostate, with HS 578T breast and in the assay on OVCAR-5 ovarian was greater than 100 µM each time.

As for `COc1cc(N(CCC#N)CCC#N)ccc1/C(N=Nc1ccc([N+](=O)[O-])cc1)=N/NC(=O)c1cc(Br)ccc1O`, the GI50 in the assay on SW-620 colon was 57.4 µg/mL; in the assay with NCI-H226 lung, 5.47 µg/mL; with SR leukemia, 44.8 µg/mL; in the assay with NCI/ADR-RES ovarian, 40.1 µg/mL; in the assay with U251 CNS, 57.3 µg/mL; in the assay with 786-0 renal, 46.4 µg/mL. In addition, the GI50 was 49.2 µg/mL in the assay on HL-60(TB) leukemia, 30.3 µg/mL in the assay on DU-145 prostate, 69.8 µg/mL with HS 578T breast and 50 µg/mL in the assay on OVCAR-5 ovarian. The TGI is greater than 150 µg/mL with SW-620 colon; 64.3 µg/mL in the assay with NCI-H226 lung; greater than 150 µg/mL in the assay on SR leukemia; 116 µg/mL in the assay on NCI/ADR-RES ovarian; greater than 150 µg/mL in the assay on U251 CNS; greater than 150 µg/mL with 786-0 renal. For the same compound, the TGI with HL-60(TB) leukemia is greater than 150 µg/mL; in the assay on DU-145 prostate, 70.9 µg/mL; in the assay on HS 578T breast it was greater than 150 µg/mL; in the assay on OVCAR-5 ovarian it was greater than 150 µg/mL.

`C=COCCCOc1ccccc1`: the TGI with SW-620 colon, with NCI-H226 lung, in the assay with SR leukemia, in the assay on NCI/ADR-RES ovarian, with U251 CNS and in the assay on 786-0 renal was greater than 100 µM each time. The TGI in the assay with HL-60(TB) leukemia, with DU-145 prostate, in the assay with HS 578T breast and in the assay with OVCAR-5 ovarian was greater than 100 µM throughout. Besides, the GI50 in the assay on NCI/ADR-RES ovarian, in the assay with 786-0 renal, in the assay on DU-145 prostate and in the assay with HS 578T breast was greater than 100 µM in each case.

In the case of `Cn1c2ccccc2c2c3c(c4c5cc(Br)ccc5n(C)c4c21)C(=O)N(O)C3=O`, the GI50 in the assay on SW-620 colon was 0.127 µM; in the assay with SR leukemia it was 0.0156 µM; with NCI/ADR-RES ovarian it was 0.0926 µM; in the assay on U251 CNS, 0.0499 µM; with 786-0 renal, 0.289 µM; in the assay with HS 578T breast, 1.09 µM. For the same compound, the TGI in the assay on SW-620 colon is greater than 100 µM; in the assay on SR leukemia, 0.584 µM; in the assay with NCI/ADR-RES ovarian, greater than 100 µM; in the assay on U251 CNS it was 0.489 µM; with 786-0 renal, 1.4 µM; with HS 578T breast it was greater than 100 µM.

In the case of `CC(C)=CC/C=C(/C)[C@H]1CC[C@]2(C)[C@@H]1CC[C@@H]1[C@@]3(C)CCCNC(C)(C)[C@@H]3CC[C@]12C`, the GI50 with SW-620 colon is 1.82 µM; in the assay on NCI-H226 lung, 3.75 µM; in the assay with NCI/ADR-RES ovarian, 2.28 µM; in the assay with U251 CNS, 1.75 µM; in the assay on 786-0 renal it was 2.38 µM; with HL-60(TB) leukemia, 1.8 µM. Besides, the GI50 in the assay with DU-145 prostate is 2.08 µM; in the assay with HS 578T breast, 4.96 µM; in the assay with OVCAR-5 ovarian, 3.86 µM. Moreover, the TGI in the assay on SW-620 colon stood at 3.68 µM; in the assay with NCI-H226 lung it was 16.8 µM; in the assay with NCI/ADR-RES ovarian, 5.07 µM; with U251 CNS it was 3.28 µM; in the assay on 786-0 renal, 6.29 µM; in the assay with HL-60(TB) leukemia, 3.73 µM. The TGI was 4.31 µM in the assay with DU-145 prostate, 22.3 µM in the assay on HS 578T breast and 15.1 µM in the assay with OVCAR-5 ovarian.

In the case of `S=C1NC2(CCCCCC2)NN1c1ccccc1`, the TGI in the assay with SW-620 colon, in the assay on NCI-H226 lung, in the assay with SR leukemia, in the assay with NCI/ADR-RES ovarian, in the assay on U251 CNS and with 786-0 renal was greater than 100 µM in each case. For the same compound, the TGI in the assay on HL-60(TB) leukemia was 3.64 µM; with DU-145 prostate, greater than 100 µM; in the assay with HS 578T breast, greater than 100 µM; in the assay with OVCAR-5 ovarian, greater than 100 µM.

For the compound `CN1CCN(CCOc2ccc(-c3cnc4c(-c5ccccc5F)cnn4c3)cc2)CC1`, the GI50 with SW-620 colon is 1.77 µM; in the assay with SR leukemia it was 2.59 µM; in the assay with NCI/ADR-RES ovarian it was 2.4 µM; in the assay on 786-0 renal it was 1.78 µM; in the assay on DU-145 prostate it was 1.65 µM; in the assay on HS 578T breast, 2 µM. Further, the GI50 in the assay on OVCAR-5 ovarian is 1.72 µM. Besides, the TGI was 3.26 µM in the assay with SW-620 colon; greater than 100 µM in the assay on SR leukemia; 6.42 µM in the assay with NCI/ADR-RES ovarian; 3.29 µM in the assay on 786-0 renal; 3.07 µM in the assay with DU-145 prostate; 5.22 µM with HS 578T breast. The TGI in the assay with OVCAR-5 ovarian amounted to 3.23 µM.
